Data taken from the NIST ThermoML archive (doi:10.1016/j.jct.2014.12.022).
± gives the expanded uncertainty stated by the source.

Tests used:
[1] = 101.33 kPa, Liquid; for speed of sound: Sing-around technique in a fixed-path interferometer; for mass density: Vibrating tube method
[2] = molar heat capacity at constant pressure; conditions: 101.33 kPa, Liquid, Small sample (50 mg) DSC

speed of sound ([1]; 293.15 K)	mass density ([1]; 293.15 K)	speed of sound ([1]; 298.15 K)	mass density ([1]; 298.15 K)	speed of sound ([1]; 303.15 K)	mass density ([1]; 303.15 K)	molar heat capacity at constant pressure ([2]; 293.15 K)	molar heat capacity at constant pressure ([2]; 298.15 K)	molar heat capacity at constant pressure ([2]; 303.15 K)	Structure (SMILES)
1565.6 ± 1.6 m/s	1033.3 ± 1 kg/m3	1546.1 ± 1.6 m/s	1028.3 ± 1 kg/m3	1527.3 ± 1.6 m/s	1023.5 ± 1 kg/m3	165.44 ± 3.3 J/K/mol	166.22 ± 3.3 J/K/mol	166.92 ± 3.3 J/K/mol	CN1CCCC1=O [N-methylpyrrolidone]
1322.6 ± 1.5 m/s	878.89 ± 1 kg/m3	1299.4 ± 1.5 m/s	873.54 ± 1 kg/m3	1276.2 ± 1.5 m/s	868.2 ± 1 kg/m3	133.58 ± 2.7 J/K/mol	135.28 ± 2.7 J/K/mol	136.58 ± 2.7 J/K/mol	c1ccccc1 [benzene]
